Like-named read-outs stand apart in the source and are kept apart here.
Columns and labels:
human PDAC slices = settings: cited from earlier work
[1] = for EE % / LC %: liposome DSPC:Chol:DSPE-PEG2000 3:2:0.15, drug feed ratio 20% (drug:lipids w/w)
Description: This was followed by incubating the liposome suspension in the suspended CXCR4 antagonists using a feed ratio of 20%. The non-incorporated drug was removed by a PD-10 column.
To perform the drug loading, Mavorixafor (MAV or AMD11070) was prepared as stock solution in PBS and added at 20% w/w over the total wt. of the lipids. The MAV/liposome mixed solution was then heated at 65° C. for 1 h then cooled at room temperature for 30 minutes. The separation of encapsulated liposomal MAV (L-MAV) and non-encapsulated MAV (free MAV) was again, through the use of PD10 size exclusion column.
The elution profile of the free MAV is pre-determined by eluting free MAV through the PD10 and measuring the UV absorbance for each elution fraction at λmax 275 nm. In a typical run a 95%+ MAV recovery will be found between 10-20 mL fractions. The free-MAV fractions was collected and combined to quantify the free-MAV by UV at λmax 275 nm. Again, the L-MAV was collected from elution 2.75-5.75 mL (3 mL in total), the free-MAV was collected from 10-20 mL fractions.
Based on the free-MAV quantification, the drug loading of L-MAV was back calculated by subtracting the free MAV from the initial MAV feeding=20% w/w. […] Based on the drug loaded L-MAV concentration (mg/mL), L-MAV was concentrated by using 50 mL VIVA-spin tubes at 30 kDa cut-off to a final concentration of 0.1 mg/mL (=0.5 mg/kg per 200 μL injection for a 20 g mouse).

[2] = Remote loading of CXCR4 antagonists in silicasomes (encapsulation efficiency, loading capacity); type: physicochemical; settings: for EE % / LC %: silicasome
Description: Following the application of a lipid bilayer, we used the weak basic properties of the of CXCR4 antagonists (AMD3100, AMD3465, AMD070) to attempt silicasome remote loading. To optimize the loading efficiency, two type of trapping agents, triethylammonium sucrose octasulfate (TEA8SOS) and ammonium sulfate ((NH4)2SO4) were tested. Briefly, for lipid coating, 40 mg/mL of the purified MSNPs were soaked in trapping agent solution (80 mM TEA8SOS or 300 mM (NH4)2SO4)) and were added to an ˜50% (w/v) lipids mixture (DSPC/Chol/DSPE-PEG2000, in the molar ratio of 3:2:0.15) solution in ethanol. The MSNP:lipid ratio was 1:1.25 (w/w). The suspension was sonicated using probe sonication (Ultrasonic Processor Model VCX130, 40% amplitude) at a 15 s/15 s on/off cycle.
The free trapping agent was removed through size exclusion chromatography using Sepharose CL-4B resin with a HEPES-buffered dextrose solution (5 mM HEPES, 5% dextrose, pH 6.5) for elution. For drug import, trapping agent-loaded particles were mixed with drug and incubated at 65° C. for 0.5 hour. The drug-laden silicasomes were purified by centrifugation to remove the free drug and liposomes; then filtered with a 0.2 μm membrane for sterilization. The drug concentration was determined by either UV spectroscopy or HPLC. Particle hydrodynamic size and zeta potential were measured by a ZETAPALS instrument (Brookhaven Instruments Corporation). The final product was visualized by cryoEM (TF20 FEI Tecnai-G2) to confirm the uniformity and integrity of the coated lipid bilayer.

[3] = system: metastatic BC models (including 4T1); settings: in vivo; cited from earlier work
X4 HIV strains = settings: read-out: inhibits the replication of X4 HIV strains (IC50); cited from earlier work
KPC tumors = assay: Orthotopic KPC model: tumor weight and immunophenotyping; type: in vivo, mice
4T1 tumors = assay: Orthotopic 4T1 TNBC tumor model; settings: for tumor shrinkage / tumor size: orthotopic 4T1, IV administration
Description: Orthotopic 4T1 tumors were established as described in FIGS. 2-4.

EMT6 tumors = assay: Orthotopic EMT6 breast cancer model; type: in vivo, mouse (Balb/c)
[4] = (NH4)2SO4, drug feed ratio 50% (drug:MSNP w/w)
[5] = TEA8SOS, drug feed ratio 50% (drug:MSNP w/w)
[6] = TEA8SOS, drug feed ratio 10% (drug:MSNP w/w)
[7] = TEA8SOS, drug feed ratio 20% (drug:MSNP w/w)

Row | EE % ([1]; (NH4)2SO4) [%] | LC % ([1]; (NH4)2SO4) [%] | EE % ([1]; TEA8SOS) [%] | LC % ([1]; TEA8SOS) [%] | EE % [2, 4] [%] | LC % [2, 4] [%] | EE % [2, 5] [%] | LC % [2, 5] [%] | SMILES | also measured
1 | 19 | 3.8 | 42.4 | 8.5 | 27 | 13.5 | 51 | 25.5 | c1cc(CN2CCCNCCNCCCNCC2)ccc1CN1CCCNCCNCCCNCC1 [AMD3100, Plerixafor] | CTL migration to the juxta-tumoral PDAC compartment (human PDAC slices; tumor cell slices): improve CTL migration to the juxta-tumoral PDAC compartment; CD8+ T-cell-mediated elimination of EpCAM+ PDAC cancer cells (human PDAC slices; tumor slice culture): did not exert similar effects; CTL recruitment [3]: increase CTL recruitment; blood perfusion [3]: improve blood perfusion; desmoplasia [3]: decrease desmoplasia; immunosuppression [3]: decrease immunosuppression; metastatic spread [3]: limit metastatic spread
2 | 55.8 | 11.2 | 84.3 | 16.9 | 68 | 34 | 70 | 35 | NCCCCN(Cc1nc2ccccc2[nH]1)[C@H]1CCCc2cccnc21 [AMD11070, Mavorixafor] | CXCR4 staining intensity (immunohistochemistry) (KPC tumors): encapsulated but not free AMD11070 delivery could significantly increase CXCR4 staining intensity; Typical MAV loading ([1]; liposome, 240 mM (NH4)2SO4, MAV feeding 20% w/w, back calculated from free MAV): 8-15 % w/w; best loading capacity (LC) in liposomes ([1]; liposomes): 17%; loading capacity ([2]; silicasome in which sucrose sulfate was used (FIG. 11)): 20%; EE % [2, 6]: 95%; LC % [2, 6]: 9.5%; EE % [2, 7]: 85%; LC % [2, 7]: 17%; T cell exclusion in the tumor margin (immunohistochemistry) (4T1 tumors; 4T1 breast cancer tumors): interference in T cell exclusion in the margin; CD8+ spatial distribution during mIHC analysis (4T1 tumors; orthotopic 4T1): failed to show a significant effect; lung metastasis (IVIS imaging of explanted lungs) (4T1 tumors; orthotopic 4T1): significant metastasis reduction; tumor shrinkage / tumor size (4T1 tumors; listed as Free AMD11070): leads to tumor shrinkage; tumor shrinkage / tumor size (4T1 tumors; listed as free AMD11070): tumor shrinkage could be obtained; lung metastasis (IVIS imaging of explanted lungs) (4T1 tumors; orthotopic 4T1, listed as free AMD11070): significant impact on lung metastases; tumor growth / tumor shrinkage (EMT6 tumors): neither free nor L-AMD11070 were able to interfere in tumor growth

Row | SMILES | EE % ([1]; (NH4)2SO4) [%] | LC % ([1]; (NH4)2SO4) [%] | EE % ([1]; TEA8SOS) [%] | LC % ([1]; TEA8SOS) [%] | EE % [2, 4] [%] | LC % [2, 4] [%] | EE % [2, 5] [%] | LC % [2, 5] [%] | also measured
3 | c1ccc(CNCc2ccc(CN3CCCNCCNCCCNCC3)cc2)nc1 [AMD3465] | 68.4 | 13.7 | 37.4 | 7.5 | 34.5 | 17.3 | 25 | 12.5 | IC50 (X4 HIV strains): 1 to 10 nM
